Data reported in paper PMC11750622, “Structural insights into translocation and tailored synthesis of hyaluronan” (Nature Structural & Molecular Biology, 2024).

Assays:
[1] = test system: CvHAS; conditions: acceptor (primer) site; UDP-GlcA and Mn2+ present; nanodisc with Nb881 and Nb872; catalytically inactive mutant
[2] = molecular target: T1, CvHAS (Paramecium bursaria Chlorella virus CZ-2, UniProt Z9D3Q5ADJ6); experiment: cryo-EM structure, […] Å; assay type: binding; conditions: formed in situ from GlcNAc and UDP-GlcA; Mn2+; nanodisc with Nb881 and Nb872; also with UDP in 8SNE (3.0 Å)
T1 construct: pET28a-CvHAS, Ni-NTA purified, expressed in E. coli C43; MSP1E3D1 nanodiscs with nanobodies for cryo-EM, IMVs for activity
T1 sequence (Z9D3Q5ADJ6 1-562): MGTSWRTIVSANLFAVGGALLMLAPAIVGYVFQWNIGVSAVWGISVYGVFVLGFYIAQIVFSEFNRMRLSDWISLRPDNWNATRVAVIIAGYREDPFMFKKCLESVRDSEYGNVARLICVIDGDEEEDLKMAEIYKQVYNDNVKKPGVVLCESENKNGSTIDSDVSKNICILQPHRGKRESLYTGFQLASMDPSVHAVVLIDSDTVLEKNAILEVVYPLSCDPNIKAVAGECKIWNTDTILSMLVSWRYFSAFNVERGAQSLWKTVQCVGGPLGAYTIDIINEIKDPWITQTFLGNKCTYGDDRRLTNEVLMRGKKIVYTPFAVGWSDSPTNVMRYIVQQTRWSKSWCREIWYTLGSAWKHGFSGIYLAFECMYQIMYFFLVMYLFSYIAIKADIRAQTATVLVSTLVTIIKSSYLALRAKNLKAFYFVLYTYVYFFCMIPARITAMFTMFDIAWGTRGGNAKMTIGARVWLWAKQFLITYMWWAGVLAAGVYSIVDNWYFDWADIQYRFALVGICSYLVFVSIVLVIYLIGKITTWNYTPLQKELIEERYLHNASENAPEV

[3] = molecular target: T1, CvHAS; experiment: cryo-EM structure, […] Å; assay type: binding; conditions: formed in situ from UDP-GlcNAc and UDP-GlcA; Mn2+; nanodisc with Nb886 and Nb872; minor UDP-GlcA state not excluded
[4] = molecular target: T2, XlHAS1 (Xenopus laevis, UniProt P13563); experiment: cryo-EM structure, […] Å; assay type: binding; conditions: Mg2+; Fab complex in GDN; gating loop inserted; active site
T2 construct: gene has1; full-length, N-terminal 12xHis tag, expressed in Sf9 cells, purified in GDN detergent, monomer
T2 sequence (P13563 1-588): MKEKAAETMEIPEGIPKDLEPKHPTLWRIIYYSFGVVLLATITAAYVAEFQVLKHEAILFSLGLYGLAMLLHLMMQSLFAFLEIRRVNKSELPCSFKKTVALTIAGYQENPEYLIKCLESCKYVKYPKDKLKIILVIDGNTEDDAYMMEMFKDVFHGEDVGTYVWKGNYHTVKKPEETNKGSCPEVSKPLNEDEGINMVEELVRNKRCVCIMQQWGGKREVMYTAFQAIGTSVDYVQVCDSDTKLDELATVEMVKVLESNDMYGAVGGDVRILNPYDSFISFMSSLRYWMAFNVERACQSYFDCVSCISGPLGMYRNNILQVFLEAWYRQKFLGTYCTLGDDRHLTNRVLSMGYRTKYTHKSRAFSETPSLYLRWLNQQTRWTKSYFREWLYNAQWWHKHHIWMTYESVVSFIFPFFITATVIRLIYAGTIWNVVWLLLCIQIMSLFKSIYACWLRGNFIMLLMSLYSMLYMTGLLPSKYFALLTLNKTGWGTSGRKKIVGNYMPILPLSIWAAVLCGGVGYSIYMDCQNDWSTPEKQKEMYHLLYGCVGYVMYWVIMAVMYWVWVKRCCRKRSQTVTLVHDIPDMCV

[5] = molecular target: T3, Xenopus laevis HAS isoform 1 (Xenopus laevis, UniProt P13563); experiment: cryo-EM structure; GDN-solubilised XlHAS1 mixed with Fab at a 1:4 molar ratio, overnight at 4 °C, SEC on Superose 6 in 0.01% GDN; apo, HA-bound and UDP-bound samples; conditions: both partners purified
T3 construct: also called XlHAS1; DG42

## CC(=O)N[C@H]1C(O)O[C@H](CO)[C@@H](O)[C@@H]1O (some centres unmarked) [GlcNAc]
[1]
  cryo-EM structure, 3.2 Å: the GlcNAc primer is well resolved and occupies the same acceptor position

## CC(=O)N[C@H]1C(O)O[C@H](CO)[C@@H](O)[C@@H]1O[C@@H]1O[C@H](C(=O)O)[C@@H](O)[C@H](O)[C@H]1O (some centres unmarked) [HA disaccharide]
[2]
  cryo-EM structure, 3.3 Å: resolves a GlcNAc at the acceptor position that is elongated by a single sugar unit

## O=c1ccn([C@@H]2O[C@H](COP(=O)(O)OP(=O)(O)O)[C@@H](O)[C@H]2O)c(=O)[nH]1 [UDP]
[3]
  cryo-EM structure, 3.0 Å: exposure of WT CvHAS to both of its substrates resulted in a UDP–HA disaccharide-bound conformation
[4]
  cryo-EM structure, 3.2 Å: UDP is coordinated by conserved motifs of the GT domain

B1: noninhibitory antibody Fab fragment against XlHAS1 (Fab, V domains shown)
VH: EVQLVESGGGLVQPGGSLRLSCAASGFNVSSYYIHWVRQAPGKGLEWVASISSSSGSTSYADSVKGRFTISADTSKNTAYLQMNSLRAEDTAVYYCARSGYYWGPYFGGFDYWGQGTLVTVSS
VL: DIQMTQSPSSLSASVGDRVTITCRASQSVSSAVAWYQQKPGKAPKLLIYSASSLYSGVPSRFSGSRSGTDFTLTISSLQPEDFATYYCQQSSSSLITFGQGTKVEIK
notes: source: selected from Fab phage library E on XlHAS1 nanodiscs
[5]
  binding result: binds
